Test results as given in US8394799B2, “Compounds that inhibit HIF-1 activity, the method for preparation thereof and the pharmaceutical composition containing them as an effective component” (Korea Research Institute of Bioscience and Biotechnology, priority 2006, dated 2013).
pIC50: −log10 of the molar value.

Columns and labels:
[1] = Acute toxicity, single oral administration in mice; settings: mouse, in vivo, 300 mg/kg
Method: An acute cytotoxicity assay was conducted with five-week-old SPF C57BL/6 mice (Samtako BioKorea) as follows.

HIF-1 [2] = assay: Assay of IC50, Hep3B cells (HRE-luciferase transfected); format: cell-based; settings: Homo sapiens
Source text: (§1) Six tandem repeats of HRE (hypoxia Responsive Element 5′-ACGTG-3′), which is present in a human VEGF gene, was inserted into the multi-cloning region of a pGL3-basic vector (Promega) containing a luciferase gene as a reporter gene to produce a recombinant pGL3-HRE-luciferase vector which was then used to assay the compounds prepared in the above Examples for inhibition activity against HIF-mediated transcriptional activity.

EPO or VEGF = assay: Expression of EPO or VEGF, target genes of HIF-1, in hypoxia (RT-PCR); format: cell-based, human; settings: RT-PCR, 0, 1, 3 and 10 μM, 12 hrs in 1% O2, FIG. 3
Source text: The inhibitory effect of the compounds of the present invention on HIF-1 activity was confirmed by assaying the compounds prepared in Examples for inhibition activity on the expression of EPO or VEGF, a representative target gene of HIF-1 through an analysis of RT-PCR (reverse transcriptase polymerase chain reaction). VEGF, a target gene of HIF-1, encodes an angiogenesis factor playing a pivotal role in the growth and metastasis of cancer and EPO is a hematosis hormone gene, and both genes have been known for being deeply related to the development and the aggravation of cancer. The compounds of the present invention were measured for inhibition of VEGF expression in AGS, Hep3B and HepG2 cells. In this regard, the hepatocellular carcinoma cell line Hep3B was treated with compounds prepared in Examples 18 and 126 as follows.
After being grown to 70% confluency in culture dishes, HepG2 cells (American Type Culture Collection) were treated with various concentrations (0 μm, 1 μm 3 μM and 10 μm) of compounds prepared in Examples 18, 44, 113 or 126 and incubated for 12 hrs in hypoxia (1% O2, 94%, N2, and 5% CO2, expressed as ‘1% O2’ in FIG. 2). Total RNA was isolated using an RNA Mini kit (Qiagen). From the total RNA (2 μg) thus obtained, cDNA was synthesized using an RT-PCR kit (Invitrogen), and was used to amplify EPO or VEGF by PCR in the presence of EPO or VEGF-specific primers. EPO or VEGF expression was quantitatively analyzed by running the PCR products on agarose gel. As an internal control, GAPDH was simultaneously amplified so as to analyze the selective inhibition of each compound for VEGF. Base sequences of primers used for the amplification of EPO, VEGF and GAPDH used in the present invention were as follows.

[3] = system: metastatic breast carcinoma cell line MDA-MB-435; assay: In vivo anticancer activity in nude mice implanted with MDA-MB-435; settings: for inhibition of the growth of the cancer cells compared to the control: once a day, MDA-MB-435 in nude mice; for deaths in six mice of each group: mouse, in vivo
Source text: Female nude mice 5-6 weeks old (Crj:BALB/c nu/nu, Charles River) were bred in germ-free breeding rooms maintained at constant temperature and humidity. The nude mice were anesthetized before incision of the chest skin. The metastatic breast carcinoma cell line MDA-MB-435, obtained from DR D. R. Welch, Univ. Alabama, was implanted at a count of 10^6 cells/mouse into the mammary gland fat pad, and the incisions were then closed with surgical clips. The nude mice were divided into test groups and a control group, each consisting of 6 mice. […] For the control group, Solution A alone was used at a dose of 100 μl once a day. Thereafter, tumor volumes and body weights were measured once a week. Tumor volumes were calculated according to the following Mathematic Formula 1. Tumor Volume (mm^3)=(Length of Long Axis,mm)×(Length of Short Axis,mm)^2×0.5 <Mathematic Formula 1>

HIF-1 [4] = assay: Assay of IC50, AGS cells (HRE-luciferase transfected); format: cell-based; settings: Homo sapiens
Source text: as §1

HIF-1 [5] = assay: HRE reporter assay, HIF activity % remaining, AGS cells; format: cell-based, human; settings: summary in words of the data of Table 1 and Table 2; cell line not stated
Source text: as §1
The hepatocellular carcinoma cell line HepG2 or Hep3B, both available from ATCC (American Type Culture Collection), and the gastric carcinoma cell line AGS, available from ATCC, were grown at 70% confluency in culture dishes and co-transfected with an internal control vector (pRL-CMV, Promega) and the recombinant pGL3-HRE-luciferase vector using Lipofectamine Plus Reagent (Invitrogen). HepG2 and AGS cells were treated with the compound of Chemical Formula 1A while Hep3B and AGS cells were treated with the compound of Chemical Formula 1B. The compound of Chemical Formula 1A was used in a concentration of 10 μm for HepG2 or AGS cells. The compound of Chemical Formula 1B was used in a concentration of 30 μM for Hep3B and in a concentration of 10 μM for AGS cells. […] The compounds prepared in Examples above were assayed for inhibition activity against HIF-1 by measuring the activity of the luciferase, induced in hypoxia, using a Dual-luciferase reporter assay system (Promoga). In this regard, the luciferase activity was measured for 10 sec using a Microlumat Plus luminometer (EG&G Berthold). In the meanwhile, the renilla luciferase activity from the control vector PRL-CMV (Promega) was measured to normalize the data obtained.
On the basis of the renilla luciferase activity, the HIF activity % remaining after treatment with the compounds was corrected.

HIF-1 [6] = assay: Assay of IC50, SK-Hep-1 cells (same manner); format: cell-based; settings: Homo sapiens, SK-HEP1; SK-Hep-1 cell line, compounds 0.01 to 100 μM for 16 hrs
Source text: as §1

pIC50 (HIF-1 [6])	Structure (SMILES)	toxicity (death, clinical syndromes, body weight, autopsy) [1]	pIC50 (HIF-1 [2])	expression of EPO or VEGF in hypoxia (EPO or VEGF)	inhibition of the growth of the cancer cells compared to the control ([3]; 20 mg/kg)	inhibition of the growth of the cancer cells compared to the control ([3]; 50 mg/kg)	deaths in six mice of each group [3]	pIC50 (HIF-1 [4])	inhibition activity against the transcription mediated by HIF-1, induced in hypoxia (HIF-1 [5])
	COC(=O)c1ccc(O)c(NC(=O)COc2ccc(C34CC5CC(CC(C5)C3)C4)cc2)c1 [Example 18, 3-[2-(4-Adamantan-1-yl-phenoxy)acetyl-amino]-4-hydroxy benzoic acid methyl ester]	no toxicity	5.59	inhibit the expression of EPO or VEGF dose-dependently	46.5%	64.6%	No dead were observed	6.15	excellent inhibition activity
	O=C(COc1ccc(C23CC4CC(CC(C4)C2)C3)cc1)Nc1cccc(C(=O)O)c1 [Example 44, 3-[2-(4-Adamantan-1-yl-phenoxy)-acetylamino]-benzoic acid]		5.30	inhibit the expression of EPO or VEGF dose-dependently				5.60	excellent inhibition activity
6.23	NC(=O)c1ccnc(NC(=O)COc2ccc(C34CC5CC(CC(C5)C3)C4)cc2)c1 [Example 113, 2-[2-(4-adamantan-1-yl-phenoxy)acetylamino]-isonicotinamide]			inhibit the expression of EPO or VEGF dose-dependently					excellent inhibition activity
	COC(=O)c1ccc2[nH]c(COc3ccc(C45CC6CC(CC(C6)C4)C5)cc3)nc2c1 [Example 126, 2-(4-adamantan-1-yl-phenoxymethyl)-1H-benzoimidazole-5-carboxylic acid methyl ester]	no toxicity		inhibit the expression of EPO or VEGF dose-dependently	53%	58.6%	No dead were observed		excellent inhibition activity
